Experimental data taken from ChEMBL document CHEMBL3271966, “beta-Adrenergic blocking agents. 17. 1-Phenoxy-3-phenoxyalkylamino-2-propanols and 1-alkoxyalkylamino-3-phenoxy-2-propanols” (J Med Chem, 1977).
Activity calls are given as the source filed them. The calls are words filed in the database; no cut-off is given here.

Tests used:
Felis catus [1] = assay: Inhibition of isoproterenol-induced tachycardia in anesthetized cat compound administered as an infusion over a period of 30 mins; type: functional
Felis catus [2] = assay: Inhibition of isoproterenol-induced vasodepressor response in anesthetized cat compound administered as an infusion over a period of 30 mins; type: organism-based; conditions: in vivo, iv, 0.5 h; further: test concentration or dose not given here

## Cc1ccccc1OCC(O)CNCCOc1ccc(C(N)=O)cc1 (configuration not stated) [TOLAMOLOL]
Felis catus [1]; 0.5 h
  ED50: 0.133 mg/kg
Felis catus [2]
  inhibition (INH): 81%

## OC(CNCCOc1ccccc1)COc1ccccc1 (configuration not stated)
Felis catus [1]; 0.5 h
  ED50: 0.054 mg/kg
Felis catus [2]
  inhibition (INH): 0%

## Cc1ccccc1OCC(O)CNCCOc1ccccc1.Cl (configuration not stated)
Felis catus [1]; 0.5 h
  ED50: 0.284 mg/kg
Felis catus [2]
  inhibition (INH): 12%

## COCCNCC(O)COc1ccccc1C#N (configuration not stated)
Felis catus [1]; 0.5 h
  ED50: 0.198 mg/kg
Felis catus [2]
  inhibition (INH): 0%

## CCOCCCNCC(O)COc1ccccc1 (configuration not stated)
Felis catus [1]; 0.5 h
  ED50: 0.066 mg/kg
Felis catus [2]
  inhibition (INH): 0%

## CC(CNCC(O)COc1ccccc1)Oc1ccccc1 (configuration not stated)
Felis catus [1]; 0.5 h
  ED50: 0.051 mg/kg
Felis catus [2]
  inhibition (INH): 0%

## Oc1ccc(OCC(O)CNCCOc2ccccc2)cc1 (configuration not stated)
Felis catus [1]; 0.5 h
  ED50: 0.031 mg/kg
Felis catus [2]
  inhibition (INH): 78%

## Cl.OC(CNCCOc1cccc2ccccc12)COc1ccccc1 (configuration not stated)
Felis catus [1]; 0.5 h
  ED50: 0.231 mg/kg
Felis catus [2]
  inhibition (INH): 0%

## OC(CNCCOc1ccc(OCc2ccccc2)cc1)COc1ccccc1 (configuration not stated)
Felis catus [1]; 0.5 h
  ED50: 0.534 mg/kg
Felis catus [2]
  inhibition (INH): 0%

## C=CCc1ccccc1OCCNCC(O)COc1ccccc1.O=C(O)C(=O)O (configuration not stated)
Felis catus [1]; 0.5 h
  ED50: 0.75 mg/kg
Felis catus [2]
  inhibition (INH): 33%

## CC(C)OCCNCC(O)COc1ccccc1[N+](=O)[O-].O=C(O)C(=O)O (configuration not stated)
Felis catus [1]; 0.5 h
  ED50: 0.195 mg/kg
Felis catus [2]
  inhibition (INH): 0%

## OC(CNCCOc1ccc(F)cc1)COc1ccccc1 (configuration not stated)
Felis catus [1]; 0.5 h
  ED50: 0.029 mg/kg
Felis catus [2]
  inhibition (INH): 58%

## O=C(O)C(=O)O.OC(CNCCOc1ccccc1)COc1ccccc1Cl (configuration not stated)
Felis catus [1]; 0.5 h
  ED50: 1.11 mg/kg
Felis catus [2]
  inhibition (INH): 38%

## COCCNCC(O)COc1cccc2ccccc12 (configuration not stated)
Felis catus [1]
  ED50: inactive

## COc1ccccc1OC(C)CNCC(O)COc1ccccc1.O=C(O)C(=O)O (configuration not stated)
Felis catus [1]; 0.5 h
  ED50: 0.014 mg/kg
Felis catus [2]
  inhibition (INH): 0%

## COc1ccccc1OCCNCC(O)COc1ccccc1 (configuration not stated)
Felis catus [1]; 0.5 h
  ED50: 0.063 mg/kg
Felis catus [2]
  inhibition (INH): 0%

## OC(CNCCOc1ccccc1)COc1ccccc1Br (configuration not stated)
Felis catus [1]; 0.5 h
  ED50: 0.3 mg/kg
Felis catus [2]
  inhibition (INH): 0%

## O=C(O)C(=O)O.OC(CNCCOc1c(Cl)cccc1Cl)COc1ccccc1 (configuration not stated)
Felis catus [1]; 0.5 h
  ED50: 0.402 mg/kg
Felis catus [2]
  inhibition (INH): 11%

## COCCNCC(O)COc1ccc(Cl)cc1 (configuration not stated)
Felis catus [1]
  ED50: inactive

## COCCNCC(O)COc1ccccc1[N+](=O)[O-] (configuration not stated)
Felis catus [1]; 0.5 h
  ED50: 0.293 mg/kg
Felis catus [2]
  inhibition (INH): 29%

## OC(CNCCOc1ccc(Cl)cc1)COc1ccccc1 (configuration not stated)
Felis catus [1]; 0.5 h
  ED50: 0.08 mg/kg
Felis catus [2]
  inhibition (INH): 0%

## COCCNCC(O)COc1ccccc1 (configuration not stated)
Felis catus [1]; 0.5 h
  ED50: 0.13 mg/kg
Felis catus [2]
  inhibition (INH): 0%

## Cl.OC(CNCCCOc1ccccc1)COc1ccccc1 (configuration not stated)
Felis catus [1]; 0.5 h
  ED50: 0.239 mg/kg
Felis catus [2]
  inhibition (INH): 0%

## COc1ccccc1OCCCNCC(O)COc1ccccc1.O=C(O)C(=O)O (configuration not stated)
Felis catus [1]; 0.5 h
  ED50: 0.721 mg/kg
Felis catus [2]
  inhibition (INH): 15%

## Cc1ccc(OCCNCC(O)COc2ccccc2)cc1 (configuration not stated)
Felis catus [1]; 0.5 h
  ED50: 0.179 mg/kg
Felis catus [2]
  inhibition (INH): 0%

## COCCNCC(O)COc1ccc(O)cc1 (configuration not stated)
Felis catus [1]; 0.5 h
  ED50: 0.118 mg/kg
Felis catus [2]
  inhibition (INH): 0%

## OC(CNCCOc1cccc(Cl)c1)COc1ccccc1 (configuration not stated)
Felis catus [1]; 0.5 h
  ED50: 0.375 mg/kg
Felis catus [2]
  inhibition (INH): 36%

## Cc1cccc(Cl)c1OCCNCC(O)COc1ccccc1.O=C(O)C(=O)O (configuration not stated)
Felis catus [1]; 0.5 h
  ED50: 0.09 mg/kg
Felis catus [2]
  inhibition (INH): 79%

## OC(CNCCOc1ccccc1)COc1ccc(OCc2ccccc2)cc1 (configuration not stated)
Felis catus [1]
  ED50: inactive

## Cc1cccc(OCCNCC(O)COc2ccccc2)c1.Cl (configuration not stated)
Felis catus [1]; 0.5 h
  ED50: 0.116 mg/kg
Felis catus [2]
  inhibition (INH): 29%

## CCOCCCNCC(O)COc1ccccc1[N+](=O)[O-].O=C(O)C(=O)O (configuration not stated)
Felis catus [1]; 0.5 h
  ED50: 0.566 mg/kg
Felis catus [2]
  inhibition (INH): 0%

## CCOCCNCC(O)COc1ccccc1 (configuration not stated)
Felis catus [1]; 0.5 h
  ED50: 0.047 mg/kg
Felis catus [2]
  inhibition (INH): 10%

## COc1ccccc1OCCNCC(O)COc1ccccc1OC.O=C(O)C(=O)O (configuration not stated)
Felis catus [1]; 0.5 h
  ED50: 0.539 mg/kg
Felis catus [2]
  inhibition (INH): 60%

## Cc1cccc(OCC(O)CNCCOc2ccccc2)c1.Cl (configuration not stated)
Felis catus [1]; 0.5 h
  ED50: 1.76 mg/kg
Felis catus [2]
  inhibition (INH): 33%

## OC(CNCCOc1ccccc1F)COc1ccccc1 (configuration not stated)
Felis catus [1]; 0.5 h
  ED50: 0.081 mg/kg
Felis catus [2]
  inhibition (INH): 0%

## Cc1ccc(OCC(O)CNCCOc2ccccc2)cc1 (configuration not stated)
Felis catus [1]
  ED50: inactive

## Cl.Oc1ccccc1OCCNCC(O)COc1ccccc1 (configuration not stated)
Felis catus [1]; 0.5 h
  ED50: 0.022 mg/kg
Felis catus [2]
  inhibition (INH): 0%

## CCCc1ccccc1OCCNCC(O)COc1ccccc1.O=C(O)C(=O)O (configuration not stated)
Felis catus [1]; 0.5 h
  ED50: 0.833 mg/kg
Felis catus [2]
  inhibition (INH): 0%

## O=C(O)C(=O)O.OC(CNCCOc1ccccc1Cl)COc1ccccc1 (configuration not stated)
Felis catus [1]; 0.5 h
  ED50: 0.821 mg/kg
Felis catus [2]
  inhibition (INH): 71%

## COc1ccc(OCCNCC(O)COc2ccccc2)cc1 (configuration not stated)
Felis catus [1]; 0.5 h
  ED50: 0.064 mg/kg
Felis catus [2]
  inhibition (INH): 0%

## Cc1ccccc1OCCNCC(O)COc1ccccc1 (configuration not stated)
Felis catus [1]; 0.5 h
  ED50: 0.031 mg/kg
Felis catus [2]
  inhibition (INH): 0%

## COc1cccc(OC)c1OCCNCC(O)COc1ccccc1.O=C(O)C(=O)O (configuration not stated)
Felis catus [1]; 0.5 h
  ED50: 2.26 mg/kg
Felis catus [2]
  inhibition (INH): 0%

## COc1ccccc1OCC(O)CNCCOc1ccccc1.O=C(O)C(=O)O (configuration not stated)
Felis catus [1]; 0.5 h
  ED50: 0.527 mg/kg
Felis catus [2]
  inhibition (INH): 0%
